Results: ChEMBL document CHEMBL1275276, “Analysis of physico-chemical properties of substrates of ABC and MFS multidrug transporters of pathogenic Candida albicans” (2010)
Activity calls are given as the source filed them. How the calls were made is not given here. Numbered stars: 1 amine (or outer) side, 2 acyl side, 3 side chain; on linkers, the order of the positions; unused ones are H or OH. Bridge positions count the residues as written; N and C are the ends. Square brackets hold non-standard residues; d marks the D form. Peptide text beside a SMILES is read from it. I, II: the chains in the order shown. Actinocin(1to9) = Cc1c2oc3c(C)ccc(C(=O)[*:2])c3nc-2c(C(=O)[*:1])c(N)c1=O; NMeV = CN[C@H](C(=O)O)C(C)C; Sar = CNCC(=O)O

Key:
Candida albicans [1] = assay: Binding affinity to Candida albicans CaMdr1p expressed in yeast AD1-8u
Saccharomyces cerevisiae [2] = assay: Antifungal activity against yeast AD1-8u expressing Candida albicans CaMdr1p by agar disk diffusion assay; type: functional; further: test concentration or dose not given here
Saccharomyces cerevisiae [3] = assay: Antifungal activity against yeast AD1-8u expressing Candida albicans CaCdr1p by agar disk diffusion assay; type: functional
Candida albicans [4] = assay: Binding affinity to Candida albicans CaCdr1p expressed in yeast AD1-8u
Wherever IZ is given: test concentration or dose not given here.

Row | Compound | Activity (Candida albicans [1]) | inhibition zone (IZ) (Saccharomyces cerevisiae [2]) | inhibition zone (IZ) (Saccharomyces cerevisiae [3]) | Activity (Candida albicans [4])
1 | CCCCCCCCCCCC[N+](C)(C)CCCS(=O)(=O)[O-] | Active | 0.8 cm | 0.2 cm | inactive
2 | CCCCCCCCCCCC(=O)OCCN(C)C | inactive | 0.2 cm | 0.4 cm | Active
3 | CCCCCCCCCCCC(=O)OCCN(CC)CC | Active | 0.7 cm | 0.2 cm | inactive
4 | CCCCCCCCCCCCn1cncn1 | inactive | 0.1 cm | 0.7 cm | Active
5 | CN[C@H]1C[C@@H](N)[C@H](O)[C@@H](O[C@@H]2O[C@H](CO)[C@H](O)[C@H]3O[C@@]4(O[C@H]23)O[C@H]([C@H](N)CO)[C@H](O)[C@H](O)[C@H]4O)[C@@H]1O | inactive | 0 cm | 0 cm | inactive
6 | CCCCCCCCCCCCCC(=O)OCCN(C)C | inactive | 0 cm | 0 cm | inactive
7 | COc1ccc(CCN(C)CCCC(C#N)(c2ccc(OC)c(OC)c2)C(C)C)cc1OC (stereo unspecified) | inactive | 0 cm | 0.9 cm | Active
8 | CCN(CC)C(=S)SSC(=S)N(CC)CC | Active | 0.3 cm | 0.4 cm | Active
9 | O=[N+]([O-])c1cc[n+]([O-])c2ccccc12 [4-NITROQUINOLINE-1-OXIDE] | Active | 0.4 cm | 0.3 cm | Active
10 | c1ccc(CNc2ncnc3[nH]cnc23)cc1 [6-BENZYLAMINOPURINE] | inactive | 0 cm | 0 cm | inactive
11 | COc1ccc(C[C@H]2NC[C@H](O)[C@H]2OC(C)=O)cc1 [ANISOMYCIN] | Active | 0.7 cm | 0.9 cm | Active
12 | CCCCNC(=O)n1c(NC(=O)OC)nc2ccccc21 [BENOMYL] | Active | 0.4 cm | 0.9 cm | Active
13 | COc1ccc2cc3[n+](cc2c1OC)CCc1cc2c(cc1-3)OCO2.[Cl-] [BERBERINE CHLORIDE] | inactive | 0 cm | 0.5 cm | Active
14 | N#CC(C#N)=NNc1cccc(Cl)c1 [CARBONYL CYANIDE M-CHLOROPHENYLHYDRAZONE] | inactive | 0 cm | 0 cm | inactive
15 | O=C(N[C@H](CO)[C@H](O)c1ccc([N+](=O)[O-])cc1)C(Cl)Cl [CHLORAMPHENICOL] | inactive | 0 cm | 0.8 cm | Active
16 | CON(C)C(=O)Nc1ccc(Br)c(Cl)c1 [CHLORBROMURON] | inactive | 0.1 cm | 0.9 cm | Active
17 | Clc1ccccc1C(c1ccccc1)(c1ccccc1)n1ccnc1 [CLOTRIMAZOLE] | inactive | 0 cm | 0.7 cm | Active
18 | COc1cc2c(c(OC)c1OC)-c1ccc(OC)c(=O)cc1[C@@H](NC(C)=O)CC2 [COLCHICINE] | inactive | 0 cm | 0 cm | inactive
19 | C[C@@H]1C[C@@H]([C@H](O)CC2CC(=O)NC(=O)C2)C(=O)[C@@H](C)C1 [CYCLOHEXIMIDE] | Active | 0.8 cm | 1.2 cm | Active
20 | O=P1(N(CCCl)CCCl)NCCCO1 (stereo unspecified) [CYCLOPHOSPHAMIDE ANHYDROUS] | inactive | 0 cm | 0 cm | inactive
21 | Cc1c2oc3c(C)ccc(C(=O)N[C@@H]4C(=O)N[C@H](C(C)C)C(=O)N5CCC[C@H]5C(=O)N(C)CC(=O)N(C)[C@@H](C(C)C)C(=O)O[C@@H]4C)c3nc-2c(C(=O)N[C@@H]2C(=O)N[C@H](C(C)C)C(=O)N3CCC[C@H]3C(=O)N(C)CC(=O)N(C)[C@@H](C(C)C)C(=O)O[C@@H]2C)c(N)c1=O [DACTINOMYCIN] (I: T[dV]P[Sar][NMeV] / II: T[dV]P[Sar][NMeV]; ester I:1-I:C, II:1-II:C; linker I:N-II:N via Actinocin(1to9)) | Active | 0.3 cm | 0.1 cm | inactive

Row | Compound | Activity (Candida albicans [1]) | inhibition zone (IZ) (Saccharomyces cerevisiae [2]) | inhibition zone (IZ) (Saccharomyces cerevisiae [3]) | Activity (Candida albicans [4])
22 | COc1cccc2c1C(=O)c1c(O)c3c(c(O)c1C2=O)C[C@@](O)(C(C)=O)C[C@@H]3O[C@H]1C[C@H](N)[C@H](O)[C@H](C)O1 [DAUNORUBICIN] | inactive | 0 cm | 0.5 cm | Active
23 | CN(C)C(=O)Nc1ccc(Cl)c(Cl)c1 [DCMU] | Active | 0.8 cm | 0.8 cm | Active
24 | C[C@@H]1C[C@H]2[C@@H]3CCC4=CC(=O)C=C[C@]4(C)[C@@]3(F)[C@@H](O)C[C@]2(C)[C@@]1(O)C(=O)CO [DEXAMETHASONE] | inactive | 0 cm | 0.9 cm | Active
25 | COc1cccc2c1C(=O)c1c(O)c3c(c(O)c1C2=O)C[C@@](O)(C(=O)CO)C[C@@H]3O[C@H]1C[C@H](N)[C@H](O)[C@H](C)O1 [DOXORUBICIN] | Active | 0.3 cm | 0.4 cm | Active
26 | C[C@]12CC[C@@H]3c4ccc(OS(=O)(=O)O)cc4CC[C@H]3[C@@H]1CCC2=O [ESTRONE SULFURIC ACID] | inactive | 0 cm | 0 cm | inactive
27 | COc1cc([C@@H]2c3cc4c(cc3[C@@H](O[C@@H]3O[C@@H]5CO[C@@H](C)O[C@H]5[C@H](O)[C@H]3O)[C@H]3COC(=O)[C@H]23)OCO4)cc(OC)c1O [ETOPOSIDE] | Active | 0.3 cm | 1.5 cm | Active
28 | OC(Cn1cncn1)(Cn1cncn1)c1ccc(F)cc1F [FLUCONAZOLE] | Active | 1.6 cm | 2.3 cm | Active
29 | Nc1nc(=O)[nH]cc1F [FLUCYTOSINE] | inactive | 0 cm | 0 cm | inactive
30 | OCCN1CCN(CCCN2c3ccccc3Sc3ccc(C(F)(F)F)cc32)CC1 [FLUPHENAZINE] | inactive | 0.2 cm | 0.3 cm | Active
31 | COc1ccc2c3c([nH]c2c1)[C@H](C=C(C)C)N1C(=O)[C@@H]2CCCN2C(=O)[C@@H]1C3 [FUMITREMORGIN] | inactive | 0 cm | 0 cm | inactive
32 | COc1cc2ncnc(Nc3ccc(F)c(Cl)c3)c2cc1OCCCN1CCOCC1 [GEFITINIB] | inactive | 0.2 cm | – | Active
33 | c1c[nH]cn1 [IMIDAZOLE] | inactive | 0 cm | 0 cm | inactive
34 | COc1ccc2c(c1)c(CC(=O)O)c(C)n2C(=O)c1ccc(Cl)cc1 [INDOMETHACIN] | inactive | 0 cm | 0 cm | inactive
35 | CCC(C)n1ncn(-c2ccc(N3CCN(c4ccc(OCC5COC(Cn6cncn6)(c6ccc(Cl)cc6Cl)O5)cc4)CC3)cc2)c1=O (stereo unspecified) [ITRACONAZOLE] | inactive | 0 cm | 1.1 cm | Active
36 | NC[C@H]1O[C@H](O[C@H]2[C@H](O)[C@@H](O[C@H]3O[C@H](CO)[C@@H](O)[C@H](N)[C@H]3O)[C@H](N)C[C@@H]2N)[C@H](O)[C@@H](O)[C@@H]1O [KANAMYCIN] | Active | 0.3 cm | 0.1 cm | inactive
37 | CC(=O)N1CCN(c2ccc(OCC3COC(Cn4ccnc4)(c4ccc(Cl)cc4Cl)O3)cc2)CC1 (stereo unspecified) [KETOCONAZOLE] | – | – | 1.4 cm | Active
38 | CCC[C@@H]1C[C@@H](C(=O)N[C@@H]([C@H]2O[C@H](SC)[C@H](O)[C@@H](O)[C@H]2O)[C@@H](C)O)N(C)C1 [LINCOMYCIN] | inactive | 0 cm | 0 cm | inactive
39 | CON(C)C(=O)Nc1ccc(Cl)c(Cl)c1 [LINURON] | Active | 0.6 cm | 0.8 cm | Active
40 | CN(Cc1cnc2nc(N)nc(N)c2n1)c1ccc(C(=O)N[C@@H](CCC(=O)O)C(=O)O)cc1 [METHOTREXATE] | Active | 0.8 cm | 0.1 cm | inactive
41 | Clc1ccc(COC(Cn2ccnc2)c2ccc(Cl)cc2Cl)c(Cl)c1 (stereo unspecified) [MICONAZOLE] | inactive | 0.2 cm | 0.5 cm | Active
